Laboratory results reported in patent US11584727B2, “2-thioxothiazolidin-4-one derivatives active as transthyretin ligands and uses thereof” (BSIM Therapeutics, S.A., priority 2014, dated 2023).

How the values were obtained:
albumin (ALB) = target: T1, albumin (ALB) (Homo sapiens, UniProt P02768); assay: Thyroxine (T4) binding competition by gel electrophoresis in plasma, albumin band; conditions: [125I]T4, in presence of compound
T1 construct: from tissue; host or cells: human plasma
Method: Briefly, upon incubation of human plasma in the presence of the test compounds and radio-labeled T4 ([125I]T4), the samples are subjected to native PAGE. After electrophoresis, the gels are dried, subjected to phosphor imaging, and the intensity of the protein bands is then compared. […] The intensity of the bands decreases, as compared to the control samples (absence of compound), if the compound binds to the protein(s) competing with T4.
FIG. 24 presents the results of these experiments, where the bands in the gel correspond to the major T4 binding plasma proteins. […] The results were analyzed by calculation of the TTR/total (TTR+ALB+TBG) ratio for each sample collected at different time points. The displacement of T4 from TTR is calculated and plotted as the difference between the average of ratios of TTR/total protein for each control sample and the average of the ratios of TTR/total protein. […]
Five (5) μL of human plasma plus 0.25-0.5 μL of [125I]T4 (specific radioactivity 1250 μCi/m; concentration 320 μCi/mL; Perkin Elmer, Boston, Mass., U.S.A.) plus 5 μL of PBS with glycerol 50% are incubated for 1 hour at room temperature (RT) and the samples are subjected to native PAGE. After electrophoresis, the gels are dried, subjected to phosphor imaging (Typhoon 8600; Molecular Diagnostics, Amersham Biosciences), and analyzed using the ImageQuant program version 5.1. […]

human plasma TTR = target: T2, human plasma TTR (Homo sapiens, UniProt P02766); assay: Tetrameric TTR stability by isoelectric focusing (IEF) of plasma TTR, ex vivo; assay type: biochemical; conditions: human plasma incubated with compound; control (vehicle) 0.717
T2 construct: from tissue; host or cells: human plasma
Method: To perform the assay, 30 μL of human plasma are incubated with 5 μL of a 10 mM solution of test compounds and control compounds overnight at 4° C. followed by a 1 hour incubation at room temperature. The preparations are subjected to native PAGE. The gel band containing TTR is then excised and applied to an IEF gel and IEF is carried out in semi-denaturing conditions. Proteins are stained with Coomassie Blue, the gels are scanned and subjected to densitometry. The results are expressed as the ratio of TTR tetramer over the total TTR species present, reflecting TTR stability.
After treatment with the test compounds, TTR was separated by PAGE and the isolated protein was analyzed by IEF.
To perform the assay, 30 μL of human plasma are incubated with 5 μL of a 10 mM solution of test compounds and control compounds overnight at 4° C. followed by a 1 hour incubation at RT. The preparations are subjected to native PAGE and the gel band containing TTR is excised and applied to an IEF gel. IEF is carried out in semi-denaturing conditions (4 M urea), containing 5% (v/v) ampholytes pH 4-6.5 (GE Healthcare), at 1200 V for 6 hours. Proteins are stained with Coomassie Blue, the gels are scanned and subjected to densitometry using the ImageQuant program. The results are expressed as the ratio of TTR tetramer over total TTR.

FAP patients = conditions: 18-month phase-III clinical trial; cited from earlier work

T1 sequence (P02768 25-609): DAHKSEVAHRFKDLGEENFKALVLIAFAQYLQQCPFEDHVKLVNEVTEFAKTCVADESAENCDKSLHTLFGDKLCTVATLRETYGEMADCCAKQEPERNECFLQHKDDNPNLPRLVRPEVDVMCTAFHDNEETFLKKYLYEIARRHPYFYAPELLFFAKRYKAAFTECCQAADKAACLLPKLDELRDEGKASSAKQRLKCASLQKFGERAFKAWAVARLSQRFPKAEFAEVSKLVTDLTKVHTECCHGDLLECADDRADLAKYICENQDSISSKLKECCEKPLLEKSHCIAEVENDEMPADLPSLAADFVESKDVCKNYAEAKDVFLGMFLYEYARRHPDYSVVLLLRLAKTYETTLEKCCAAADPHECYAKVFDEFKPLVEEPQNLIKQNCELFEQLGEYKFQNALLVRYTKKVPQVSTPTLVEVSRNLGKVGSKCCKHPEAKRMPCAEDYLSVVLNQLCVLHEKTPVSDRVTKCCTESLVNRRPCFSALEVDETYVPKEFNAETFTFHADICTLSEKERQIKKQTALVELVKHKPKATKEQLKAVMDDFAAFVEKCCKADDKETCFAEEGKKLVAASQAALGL

| Compound | T4 bound to ALB (albumin (ALB)) [%] | tetramer/monomer ratio (IEF densitometry) (human plasma TTR) | FAP patients with improvement of symptoms (FAP patients) |
| --- | --- | --- | --- |
| COc1cc(/C=C2\SC(=S)N(CC(=O)O)C2=O)cc(Cl)c1O [AT50-A00 (Z), (Z)-3-hydroxycarbonylmethyl-5-(3′-chloro-4′-hydroxy-5′-methoxyphenylmethylidene)-2-thioxothiazolidin-4-one] | 31.5 | 0.838 | – |
| O=C(O)c1ccc2nc(-c3cc(Cl)cc(Cl)c3)oc2c1 [Tafamidis, reference compound] | 32.0 | – | approximately 60% |
